Results taken from patent publication US20140155384A1, “COMPOUNDS AND METHODS OF TREATING DIABETES” (Medivation Technologies, Inc., priority 2011, published 2014).

What was measured:
[1] = biological target: T1, human recombinant adrenergic α1D receptor (Homo sapiens, UniProt P25100); assay: Radioligand binding, adrenergic α1D receptor ([3H]Prazosin); details: 0.1 μM compound; HEK-293 cells; 0.6 nM [3H]Prazosin; read-out: Percentage inhibition of ligand binding, Adrenergic α1D
T1 construct: expressed in transfected cells; host or cells: HEK-293
T1 sequence (P25100 1-572): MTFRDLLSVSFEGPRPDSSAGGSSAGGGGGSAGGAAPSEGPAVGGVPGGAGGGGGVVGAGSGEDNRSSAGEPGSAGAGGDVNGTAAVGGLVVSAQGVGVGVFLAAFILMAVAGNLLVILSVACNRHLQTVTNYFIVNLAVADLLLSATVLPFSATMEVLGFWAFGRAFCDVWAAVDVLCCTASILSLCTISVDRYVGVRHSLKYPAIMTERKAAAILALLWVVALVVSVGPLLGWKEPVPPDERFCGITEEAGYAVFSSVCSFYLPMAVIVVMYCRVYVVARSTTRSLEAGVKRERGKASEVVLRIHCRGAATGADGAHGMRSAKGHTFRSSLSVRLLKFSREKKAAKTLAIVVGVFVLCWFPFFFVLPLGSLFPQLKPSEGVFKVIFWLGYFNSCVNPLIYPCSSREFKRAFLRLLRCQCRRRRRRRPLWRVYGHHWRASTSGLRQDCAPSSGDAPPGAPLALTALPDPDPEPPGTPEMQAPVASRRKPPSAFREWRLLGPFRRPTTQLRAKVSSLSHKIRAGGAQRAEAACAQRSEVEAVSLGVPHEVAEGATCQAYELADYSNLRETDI
Protocol: Compounds were incubated with 0.6 nM [3H]Prazosin for 60 min at 25° C. Non-specific binding was estimated in the presence of 10 μM phentolamine. Receptor proteins were filtered and washed, the filters were then counted to determine [3H]Prazosin specifically bound. Compounds were screened at 1 μM or lower, using 1% DMSO as vehicle. Biochemical assay results are presented as the percent inhibition of specific binding in Table 2.

[2] = biological target: T2, human recombinant adrenergic α2A receptor (Homo sapiens, UniProt P08913); assay: Radioligand binding, adrenergic α2A receptor ([3H]MK-912); details: 0.1 μM compound; Sf9 cells; 1 nM [3H]MK-912; read-out: Percentage inhibition of ligand binding, Adrenergic α2A
T2 construct: expressed in transfected cells; host or cells: insect Sf9 cells
T2 sequence (P08913 1-465): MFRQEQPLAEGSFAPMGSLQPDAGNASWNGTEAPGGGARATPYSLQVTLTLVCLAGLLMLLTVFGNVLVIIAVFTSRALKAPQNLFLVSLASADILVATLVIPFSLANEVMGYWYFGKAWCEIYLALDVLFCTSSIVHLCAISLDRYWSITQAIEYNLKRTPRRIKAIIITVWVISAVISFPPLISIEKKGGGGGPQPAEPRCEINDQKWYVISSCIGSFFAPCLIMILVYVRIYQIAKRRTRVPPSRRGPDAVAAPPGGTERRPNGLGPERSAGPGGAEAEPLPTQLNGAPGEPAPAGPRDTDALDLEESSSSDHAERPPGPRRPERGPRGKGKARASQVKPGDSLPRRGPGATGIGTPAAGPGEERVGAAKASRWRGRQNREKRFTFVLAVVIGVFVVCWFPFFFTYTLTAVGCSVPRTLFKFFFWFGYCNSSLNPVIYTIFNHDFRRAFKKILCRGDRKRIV
Outline: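 Percent inhibition of specific [3H]MK-912 (1 nM) binding measured by filtration counting, compounds tested at ≤1 μM in 1% DMSO. Receptor: human α2A from Sf9 cells; incubation 60 min, 25 °C, pH 7.4; 10 μM WB-4101 defined nonspecific binding.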

[3] = biological target: T3, human recombinant adrenergic α2B receptor (Homo sapiens, UniProt P18089); assay: Radioligand binding, adrenergic α2B receptor ([3H]Rauwolscine); details: 0.1 μM compound, CHO-K1 cells, read-out: Percentage inhibition of ligand binding, Adrenergic α2B
T3 construct: expressed in transfected cells; host or cells: CHO-K1
T3 sequence (P18089 1-450): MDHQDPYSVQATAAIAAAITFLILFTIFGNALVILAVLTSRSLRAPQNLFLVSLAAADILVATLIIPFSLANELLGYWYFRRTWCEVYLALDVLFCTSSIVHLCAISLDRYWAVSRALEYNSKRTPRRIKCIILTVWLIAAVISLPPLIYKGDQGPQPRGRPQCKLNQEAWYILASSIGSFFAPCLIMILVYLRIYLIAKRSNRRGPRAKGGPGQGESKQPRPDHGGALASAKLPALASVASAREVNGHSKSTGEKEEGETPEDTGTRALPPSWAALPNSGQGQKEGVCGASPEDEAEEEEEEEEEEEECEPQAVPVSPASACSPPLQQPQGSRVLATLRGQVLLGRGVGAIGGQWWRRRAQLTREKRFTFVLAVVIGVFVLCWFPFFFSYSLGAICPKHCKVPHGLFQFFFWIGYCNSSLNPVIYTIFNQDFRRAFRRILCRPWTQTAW
Outline: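 Percent inhibition of specific [3H]Rauwolscine (2.5 nM) binding, compounds at ≤1 μM, 1% DMSO vehicle, 10 μM prazosin defining nonspecific. Receptor: human α2B expressed in CHO-K1 cells, 60 min incubation at 25 °C in Tris-HCl pH 7.4 buffer (MgCl2, EDTA, BSA); filtered, washed, counted.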

[4] = biological target: T4, rat adrenergic α1B receptor (Rattus norvegicus, UniProt P15823); assay: Radioligand binding, adrenergic α1B receptor ([3H]Prazosin); details: 0.1 μM compound, Wistar rat liver, read-out: Percentage inhibition of ligand binding, Adrenergic α1B
T4 construct: rat adrenergic α1B receptor obtained from Wistar Rat liver; from tissue; host or cells: Wistar rat liver
T4 sequence (P15823 1-515): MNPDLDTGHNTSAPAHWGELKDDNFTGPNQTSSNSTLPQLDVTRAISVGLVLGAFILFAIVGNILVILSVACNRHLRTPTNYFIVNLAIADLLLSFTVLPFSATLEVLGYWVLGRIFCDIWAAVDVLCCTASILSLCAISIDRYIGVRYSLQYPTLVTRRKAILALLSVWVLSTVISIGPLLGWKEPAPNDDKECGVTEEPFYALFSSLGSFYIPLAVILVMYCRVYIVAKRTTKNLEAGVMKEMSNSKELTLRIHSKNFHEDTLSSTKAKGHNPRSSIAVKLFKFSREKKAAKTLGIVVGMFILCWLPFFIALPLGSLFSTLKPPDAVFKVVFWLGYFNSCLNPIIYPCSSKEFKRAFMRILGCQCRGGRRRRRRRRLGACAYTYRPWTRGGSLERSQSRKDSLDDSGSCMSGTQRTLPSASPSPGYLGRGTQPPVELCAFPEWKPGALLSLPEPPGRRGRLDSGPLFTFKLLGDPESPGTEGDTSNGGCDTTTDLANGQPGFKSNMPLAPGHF
Outline: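 Wistar rat liver α1B receptor preparation incubated with 0.25 nM [3H]prazosin and compound for 60 min at 25° C in 50 mM Tris-HCl pH 7.4, 0.5 mM EDTA; nonspecific binding defined with 10 μM phentolamine.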

Compound | inhibition at 0.1 µM [1] [%] | inhibition at 0.1 µM [2] [%] | inhibition at 0.1 µM [3] [%] | inhibition at 0.1 µM [4] [%]
Cc1ccc2c(c1)c1c(n2-c2ccc3cnccc3c2)CCN(C)C1 [Compound 38] | 32 | 32 | 57 | 31
Cc1ccc2c(c1)c1c(n2-c2ccc(-c3cnn(C)c3)cn2)CCN(C)C1 [Compound No. 134, 2,8-dimethyl-5-(5-(1-methyl-1H-pyrazol-4-yl)pyridin-2-yl)-2,3,4,5-tetrahydro-1H-pyrido[4,3-b]indole] | 30 | 38 | 73 | 43
Cc1ccc2c(c1)c1c(n2-c2ccccc2-c2cc3ccccc3s2)CCN(C)C1 [Compound No. 103, 5-(2-(benzo[b]thiophen-2-yl)phenyl)-2,8-dimethyl-2,3,4,5-tetrahydro-1H-pyrido[4,3-b]indole] | 62 | 98 | 97 | 41
Cc1ccc2c(c1)c1c(n2-c2cccc(-c3cnn(C)c3)c2)CCN(C)C1 [Compound 46, 2,8-dimethyl-5-(3-(1-methyl-1H-pyrazol-4-yl)phenyl)-2,3,4,5-tetrahydro-1H-pyrido[4,3-b]indole] | 8 | 48 | 21 | -7
Cc1ccc2c(c1)c1c(n2-c2ccc(-c3cccc4[nH]ncc34)cn2)CCN(C)C1 [Compound No. 147, 5-(5-(1H-indazol-4-yl)pyridin-2-yl)-2,8-dimethyl-2,3,4,5-tetrahydro-1H-pyrido[4,3-b]indole] | 61 | 46 | 43 | 72
Cc1csc(-c2cccc(-n3c4c(c5cc(C)ccc53)CN(C)CC4)c2)c1 [Compound No. 63, 2,8-dimethyl-5-(3-(4-methylthiophen-2-yl)phenyl)-2,3,4,5-tetrahydro-1H-pyrido[4,3-b]indole] | 5 | 30 | 11 | 2
Cc1ccc2c(c1)c1c(n2-c2cscc2C(=O)N(C)C)CCN(C)C1 [Compound No. 152] | 16 | 9 | 51 | 10
Cc1ccc2c(c1)c1c(n2-c2ccc(-c3c(C)noc3C)cn2)CCN(C)C1 [Compound No. 137, 4-(6-(2,8-dimethyl-3,4-dihydro-1H-pyrido[4,3-b]indol-5(2H)-yl)pyridin-3-yl)-3,5-dimethylisoxazole] | 74 | 57 | 92 | 72
Cc1ccc2c(c1)c1c(n2-c2ccc(-c3ccc(S(N)(=O)=O)cc3)cn2)CCN(C)C1 [Compound No. 145, 4-(6-(2,8-dimethyl-3,4-dihydro-1H-pyrido[4,3-b]indol-5(2H)-yl)pyridin-3-yl)benzenesulfonamide] | 73 | 71 | 83 | 86
Cc1ccc2c(c1)c1c(n2-c2cscc2-c2cc3ccccc3s2)CCN(C)C1 [Compound No. 151] | 67 | 96 | 99 | 59
Cc1cc(C)c2c(c1)c1c(n2-c2cccc(-c3ccncc3)c2)CCN(C)C1 [Compound 57, 2,6,8-trimethyl-5-(3-(pyridin-4-yl)phenyl)-2,3,4,5-tetrahydro-1H-pyrido[4,3-b]indole] | -1 | 7 | 11 | 6
Cc1ccc2c(c1)c1c(n2-c2ccccc2-c2ccncc2)CCN(C)C1 [Compound 5, 2,8-dimethyl-5-(2-pyridin-4-yl-phenyl)-2,3,4,5-tetrahydro-1H-pyrido[4,3-b]indole] | 45 | 26 | 78 | 52
Cc1ccc2c(c1)c1c(n2-c2cccc(-c3cncc4ccccc34)c2)CCN(C)C1 [Compound No. 67, 5-(3-(isoquinolin-4-yl)phenyl)-2,8-dimethyl-2,3,4,5-tetrahydro-1H-pyrido[4,3-b]indole] | -1 | 39 | 13 | 2
Cc1ccc2c(c1)c1c(n2-c2ccc(-c3cccnc3)cn2)CCN(C)C1 [Compound No. 133, 5-(3,3′-bipyridin-6-yl)-2,8-dimethyl-2,3,4,5-tetrahydro-1H-pyrido[4,3-b]indole] | 53 | 31 | 77 | 63
Cc1ccc2c(c1)c1c(n2-c2ccccc2-c2ccc(C)s2)CCN(C)C1 [Compound No. 81, 2,8-dimethyl-5-(2-(5-methylthiophen-2-yl)phenyl)-2,3,4,5-tetrahydro-1H-pyrido[4,3-b]indole] | 36 | 88 | 95 | 37
CNC(=O)c1ccc(-c2ccccc2-n2c3c(c4cc(C)ccc42)CN(C)CC3)cc1 [Compound No. 72, 2′-(2,8-dimethyl-3,4-dihydro-1H-pyrido[4,3-b]indol-5(2H)-yl)-N-methylbiphenyl-4-carboxamide] | 56 | 3 | 17 | 28
